Target: T1, SMYD3 (Homo sapiens, UniProt Q9H7B4)
T1 sequence (Q9H7B4 1-428): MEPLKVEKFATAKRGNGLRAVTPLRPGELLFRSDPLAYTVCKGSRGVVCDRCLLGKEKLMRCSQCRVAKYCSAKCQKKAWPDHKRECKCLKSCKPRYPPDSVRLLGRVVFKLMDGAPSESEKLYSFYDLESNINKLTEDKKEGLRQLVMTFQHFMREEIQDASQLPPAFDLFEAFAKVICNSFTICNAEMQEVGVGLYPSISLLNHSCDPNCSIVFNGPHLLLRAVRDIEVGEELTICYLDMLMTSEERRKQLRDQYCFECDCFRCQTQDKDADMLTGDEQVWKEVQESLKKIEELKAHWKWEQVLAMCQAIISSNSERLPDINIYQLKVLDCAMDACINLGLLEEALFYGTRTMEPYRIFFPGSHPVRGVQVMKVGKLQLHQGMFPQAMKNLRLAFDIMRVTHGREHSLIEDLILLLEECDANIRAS
Test: SMYD3 biochemical assay (MTase-Glo, MAP3K2 peptide substrate)
Conditions: Table 3; MTase assay, MAP3K2 peptide substrate; read-out: IC50
Method: A SMYD3 enzymatic assay was developed using Promega's Methyltransferase-Glo™ reagents. In the assay, SMYD3 catalyzes the methylation of the MAP3K2 peptide substrate by transferring a methyl group from SAM to MAP3K2 peptide and further converts the SAM to SAH. The SMYD3 methyltransferase activity is measured based on the amount of SAH produced from the reaction through the use of coupling enzymes that convert the SAH to ATP. The MTase-Glo detection solution then catalyzes the formation of light from ATP.
A final concentration of 1.0 μM and 10 μM SAM and MAP3K2 peptide were added and further incubated for 30 min at room temperature before adding the MTase Glo and detection reagent. Reaction signals were detected using microplate readers on luminescent mode (Safire Tecan). The IC50 was determined by non-linear regression, using GraphPad Prism version, 5.03.

Row | IC50 [nM] | SMILES
1 | 2700 | CCCOC(=O)N1CCN(C(=O)c2ccc3c(Cl)c4c(nc3c2)CCCC4)CC1CCO (stereo not shown) [A060, Propyl 4-(9-chloro-5,6,7,8-tetrahydroacridine-3-carbonyl)-2-(2-hydroxyethyl)piperazine-1-carboxylate]
2 | 4100 | CCCOC(=O)N1CCN(C(=O)c2ccc3c(Cl)c4c(nc3c2)CCCC4)CC1COC(=O)CCC (stereo not shown) [A061, Propyl 2-((butyryloxy)methyl)-4-(9-chloro-5,6,7,8-tetrahydroacridine-3-carbonyl)piperazine-1-carboxylate]
3 | 210 | CCCOC(=O)N1CCN(C(=O)c2ccc3c(Cl)c4c(nc3c2)CCC(CC(=O)OC)C4)C[C@@H]1C (stereo partly drawn) [A062, Propyl (2S)-4-(9-chloro-7-(2-methoxy-2-oxoethyl)-5,6,7,8-tetrahydroacridine-3-carbonyl)-2-methylpiperazine-1-carboxylate]
4 | 250 | CCCOC(=O)N1CCN(C(=O)c2ccc3c(Cl)c4c(nc3c2)CCC(CC(=O)OC)C4)C[C@H]1C (stereo partly drawn) [A063, Propyl (2R)-4-(9-chloro-7-(2-methoxy-2-oxoethyl)-5,6,7,8-tetrahydroacridine-3-carbonyl)-2-methylpiperazine-1-carboxylate]
5 | 700 | CCCOC(=O)N1CCN(C(=O)c2ccc3c(Cl)c4c(nc3c2)CCCC4)C(C(F)(F)F)C1 (stereo not shown) [A064, Propyl 4-(9-chloro-5,6,7,8-tetrahydroacridine-3-carbonyl)-3-(trifluoromethyl)piperazine-1-carboxylate]
6 | 190 | CCCOC(=O)N1CCN(C(=O)c2ccc3c(Cl)c4c(nc3c2)CC(CC#N)CC4)CC1 (stereo not shown) [A065, Propyl 4-(9-chloro-6-(cyanomethyl)-5,6,7,8-tetrahydroacridine-3-carbonyl)piperazine-1-carboxylate]
7 | 160 | CCCOC(=O)N1CCN(C(=O)c2ccc3c(Cl)c4c(nc3c2)CC(CN)CC4)[C@@H](C)C1 (stereo partly drawn) [A067, Propyl (3S)-4-(6-(aminomethyl)-9-chloro-5,6,7,8-tetrahydroacridine-3-carbonyl)-3-methylpiperazine-1-carboxylate]
8 | 1200 | CCCOC(=O)N1CCN(C(=O)c2ccc3c(Cl)c4c(nc3c2)CCC(CN(C)C)C4)CC1 (stereo not shown) [A068, Propyl 4-(9-chloro-7-((dimethylamino)methyl)-5,6,7,8-tetrahydroacridine-3-carbonyl)piperazine-1-carboxylate]
9 | 5200 | CCCOC(=O)N1CCN(C(=O)c2ccc3c(Cl)c4c(nc3c2)CCCC4)CC1CC(=O)OC (stereo not shown) [A069, Propyl 4-(9-chloro-5,6,7,8-tetrahydroacridine-3-carbonyl)-2-(2-methoxy-2-oxoethyl)piperazine-1-carboxylate]
10 | 2600 | CCCOC(=O)N1CCN(C(=O)c2ccc3c(Cl)c4c(nc3c2)CCCC4)C(CC(=O)OC)C1 (stereo not shown) [A070, Propyl 4-(9-chloro-5,6,7,8-tetrahydroacridine-3-carbonyl)-3-(2-methoxy-2-oxoethyl)piperazine-1-carboxylate]
11 | 4200 | CCCOC(=O)N1CCN(C(=O)c2ccc3c(Cl)c4c(nc3c2)CCCC4)C(CC(=O)N(C)C)C1 (stereo not shown) [A071, Propyl 4-(9-chloro-5,6,7,8-tetrahydroacridine-3-carbonyl)-3-(2-(dimethylamino)-2-oxoethyl)piperazine-1-carboxylate]
12 | 4300 | CCCOC(=O)N1CCN(C(=O)c2ccc3c(Cl)c4c(nc3c2)CCCC4)C(CC(=O)NC)C1 (stereo not shown) [A072, propyl 4-(9-chloro-5,6,7,8-tetrahydroacridine-3-carbonyl)-3-(2-(methylamino)-2-oxoethyl)piperazine-1-carboxylate]
13 | 150 | CCCOC(=O)N1CCN(C(=O)c2ccc3c(Cl)c4c(nc3c2)CC(c2ccccn2)CC4)C[C@@H]1C (stereo partly drawn) [A073, Propyl (2S)-4-(9-chloro-6-(pyridin-2-yl)-5,6,7,8-tetrahydroacridine-3-carbonyl)-2-methylpiperazine-1-carboxylate]
14 | 210 | CCCOC(=O)N1CCN(C(=O)c2ccc3c(Cl)c4c(nc3c2)CCC(CCN(C)C)C4)CC1 (stereo not shown) [A075, Propyl 4-(9-chloro-7-(2-(dimethylamino)ethyl)-5,6,7,8-tetrahydroacridine-3-carbonyl)piperazine-1-carboxylate]
15 | 160 | CCCOC(=O)N1CCN(C(=O)c2ccc3c(Cl)c4c(nc3c2)CC(CCN)CC4)CC1 (stereo not shown) [A076, Propyl 4-(6-(2-aminoethyl)-9-chloro-5,6,7,8-tetrahydroacridine-3-carbonyl)piperazine-1-carboxylate]
16 | 1200 | CCCOC(=O)N1CCN(C(=O)c2ccc3c(Cl)c4c(nc3c2)CC(CC(N)=O)CC4)CC1 (stereo not shown) [A077, Propyl 4-(6-(2-amino-2-oxoethyl)-9-chloro-5,6,7,8-tetrahydroacridine-3-carbonyl)piperazine-1-carboxylate]
17 | 280 | CCCOC(=O)N1CCN(C(=O)c2ccc3c(Cl)c4c(nc3c2)CCC(CC#N)C4)CC1 (stereo not shown) [A078, Propyl 4-(9-chloro-7-(cyanomethyl)-5,6,7,8-tetrahydroacridine-3-carbonyl)piperazine-1-carboxylate]
18 | 430 | CCCOC(=O)N1CCN(C(=O)c2ccc3c(Cl)c4c(nc3c2)CCC(CC(N)=O)C4)CC1 (stereo not shown) [A079, Propyl 4-(7-(2-amino-2-oxoethyl)-9-chloro-5,6,7,8-tetrahydroacridine-3-carbonyl)piperazine-1-carboxylate]
19 | 170 | CCCOC(=O)N1CC2CCCC1CN2C(=O)c1ccc2c(Cl)c3c(nc2c1)CCCC3 (stereo not shown) [A080, Propyl 8-(9-chloro-5,6,7,8-tetrahydroacridine-3-carbonyl)-6,8-diazabicyclo[3.2.2]nonane-6-carboxylate]
20 | 150 | CCCOC(=O)N1CCN(C(=O)c2ccc3c(Cl)c4c(nc3c2)CCC(CCN)C4)[C@@H](C)C1 (stereo partly drawn) [A081, Propyl (3S)-4-(7-(2-aminoethyl)-9-chloro-5,6,7,8-tetrahydroacridine-3-carbonyl)-3-methylpiperazine-1-carboxylate]
21 | 510 | CCCOC(=O)N1CCN(C(=O)c2ccc3c(Cl)c4c(nc3c2)CCC(CCN(C)C)C4)[C@@H](C)C1 (stereo partly drawn) [A082, Propyl (3S)-4-(9-chloro-7-(2-(dimethylamino)ethyl)-5,6,7,8-tetrahydroacridine-3-carbonyl)-3-methylpiperazine-1-carboxylate]
22 | 440 | Cc1cc(C(=O)N2CCN(C(=O)c3ccc4c(Cl)c5c(nc4c3)CCCC5)[C@@H](C)C2)no1 [A083, (S)-(9-Chloro-5,6,7,8-tetrahydroacridin-3-yl)(2-methyl-4-(5-methylisoxazole-3-carbonyl)piperazin-1-yl)methanone]
23 | 120 | CCCOC(=O)N1CCN(C(=O)c2ccc3c(Cl)c4c(nc3c2)CCC(CC(=O)OC)C4)[C@@H](C)C1 (stereo partly drawn) [A084, Propyl (3S)-4-(9-chloro-7-(2-methoxy-2-oxoethyl)-5,6,7,8-tetrahydroacridine-3-carbonyl)-3-methylpiperazine-1-carboxylate]
24 | 160 | CCCOC(=O)N1CCN(C(=O)c2ccc3c(Cl)c4c(nc3c2)CCC(CC(=O)OC)C4)[C@H](C)C1 (stereo partly drawn) [A085, Propyl (3R)-4-(9-chloro-7-(2-methoxy-2-oxoethyl)-5,6,7,8-tetrahydroacridine-3-carbonyl)-3-methylpiperazine-1-carboxylate]
25 | 95 | CCCOC(=O)N1CCN(C(=O)c2ccc3c(Cl)c4c(nc3c2)CC(c2ccccn2)CC4)[C@@H](C)C1 (stereo partly drawn) [A086, Propyl (3S)-4-(9-chloro-6-(pyridin-2-yl)-5,6,7,8-tetrahydroacridine-3-carbonyl)-3-methylpiperazine-1-carboxylate]

Reference: patent publication US20190071416A1, “COMPOUNDS FOR TREATMENT OF CANCER AND EPIGENETICS” (Agency For Science, Technology and Research, priority 2015, published 2019)
